Assay results reported in article PMC6128713 (Saudi Pharmaceutical Journal : SPJ, 2018).
Where two headings read alike, the source gives them in different places. One block for each compound: values may come before it.

What was measured:
[1] = tested on: glutamate-induced 45Ca2+ uptake into synaptosomes of rat brain cortex; assay: Effect on glutamate-induced 45Ca2+ uptake into synaptosomes of rat brain cortex; type: biochemical, Wistar rats; details: for Percentage 45Ca2+ of Control (Control – 100%): 200 μM glutamate, 5 min, 37 °C
[2] = type: physicochemical

SMILES: Cc1ccc2c(c1)c1c(n2CCc2ccc(C)nc2)CCN(C)C1 [Dimebon, reference compound]
Percentage 45Ca2+ of Control (Control – 100%) ([1]; compound 0.1 μM): 120.5 ± 3.3%
Percentage 45Ca2+ of Control (Control – 100%) ([1]; compound 0.5 μM): 64.4 ± 12.4%
Percentage 45Ca2+ of Control (Control – 100%) ([1]; compound 1 μM): 61.3 ± 8.1%
Percentage 45Ca2+ of Control (Control – 100%) ([1]; compound 5 μM): 83.2 ± 4.1%
Percentage 45Ca2+ of Control (Control – 100%) ([1]; compound 10 μM): 89.3 ± 1.2%
Percentage 45Ca2+ of Control (Control – 100%) ([1]; compound 50 μM): 98.7 ± 8.8%
Percentage 45Ca2+ of Control (Control – 100%) ([1]; compound 100 μM): 132.0 ± 2.9%

mole fraction solubility (x) ([2]; 1-octanol, 293.15 K): 0.89 x · 10^4
A, parameter of the correlation equation lnx=A-B/T ([2]; 1-octanol, 293.15–313.15 K): 3.95 ± 0.23
B, parameter of the correlation equation lnx=A-B/T ([2]; 1-octanol, 293.15–313.15 K): 3889 ± 69
mole fraction solubility (x) ([2]; 1-octanol, 298.15 K): 1.13 x · 10^4
ΔGsol0, standard molar dissolution Gibbs energy ([2]; 1-octanol, 298.15 K): 5.38 kcal/mol
ΔHsol0, standard molar dissolution enthalpy ([2]; 1-octanol, 298.15 K): 7.72 kcal/mol
ΔSsol0, standard molar dissolution entropy ([2]; 1-octanol, 298.15 K): 32.9 J/mol⋅K
mole fraction solubility (x) ([2]; 1-octanol, 303.15 K): 1.39 x · 10^4
mole fraction solubility (x) ([2]; 1-octanol, 308.15 K): 1.68 x · 10^4
mole fraction solubility (x) ([2]; 1-octanol, 313.15 K): 2.11 x · 10^4
mole fraction solubility (x) ([2]; Buffer pH 7.4, 293.15 K): 1.64 x · 10^6
A, parameter of the correlation equation lnx=A-B/T ([2]; Buffer pH 7.4, 293.15–313.15 K): −2.90 ± 0.22
B, parameter of the correlation equation lnx=A-B/T ([2]; Buffer pH 7.4, 293.15–313.15 K): 3054 ± 67
mole fraction solubility (x) ([2]; Buffer pH 7.4, 298.15 K): 1.96 x · 10^6
ΔGsol0, standard molar dissolution Gibbs energy ([2]; Buffer pH 7.4, 298.15 K): 7.79 kcal/mol
ΔHsol0, standard molar dissolution enthalpy ([2]; Buffer pH 7.4, 298.15 K): 6.07 kcal/mol
ΔSsol0, standard molar dissolution entropy ([2]; Buffer pH 7.4, 298.15 K): -24.2 J/mol⋅K
mole fraction solubility (x) ([2]; Buffer pH 7.4, 303.15 K): 2.27 x · 10^6
mole fraction solubility (x) ([2]; Buffer pH 7.4, 308.15 K): 2.70 x · 10^6
mole fraction solubility (x) ([2]; Buffer pH 7.4, 313.15 K): 3.21 x · 10^6
mole fraction solubility (x) ([2]; Hexane, 293.15 K): 1.42 x · 10^5
A, parameter of the correlation equation lnx=A-B/T ([2]; Hexane, 293.15–313.15 K): −1.39 ± 0.17
B, parameter of the correlation equation lnx=A-B/T ([2]; Hexane, 293.15–313.15 K): 2989 ± 49
mole fraction solubility (x) ([2]; Hexane, 298.15 K): 1.70 x · 10^5
ΔGsol0, standard molar dissolution Gibbs energy ([2]; Hexane, 298.15 K): 6.5 kcal/mol
ΔHsol0, standard molar dissolution enthalpy ([2]; Hexane, 298.15 K): 5.95 kcal/mol
ΔSsol0, standard molar dissolution entropy ([2]; Hexane, 298.15 K): -7.7 J/mol⋅K
mole fraction solubility (x) ([2]; Hexane, 303.15 K): 2.02 x · 10^5
mole fraction solubility (x) ([2]; Hexane, 308.15 K): 2.35 x · 10^5
mole fraction solubility (x) ([2]; Hexane, 313.15 K): 2.72 x · 10^5
SMILES: Cc1ccc2c(c1)c1c(n2CCc2n[nH]c(=S)n2C)CCN(C)C1 [Compound II, 5-[2-(2,8-Dimethyl-1,2,3,4-tetrahydropyrido[4,3-b]indol-5-yl)ethyl]-4-methyl-2,4-dihydro [1,2,4] triazole-3-thione]
Percentage 45Ca2+ of Control (Control – 100%) ([1]; compound 0.01 μM): 84.7 ± 1.2%
Percentage 45Ca2+ of Control (Control – 100%) ([1]; compound 0.1 μM): 85.5 ± 3.9%
Percentage 45Ca2+ of Control (Control – 100%) ([1]; compound 0.5 μM): 102.6 ± 3.6%
Percentage 45Ca2+ of Control (Control – 100%) ([1]; compound 1 μM): 93.6 ± 3.6%
Percentage 45Ca2+ of Control (Control – 100%) ([1]; compound 5 μM): 113.1 ± 7.6%
Percentage 45Ca2+ of Control (Control – 100%) ([1]; compound 10 μM): 109.7 ± 7.5%
Percentage 45Ca2+ of Control (Control – 100%) ([1]; compound 50 μM): 118.6 ± 2.7%
Percentage 45Ca2+ of Control (Control – 100%) ([1]; compound 100 μM): 127.1 ± 17.1%
inhibition of glutamate-induced uptake of calcium ions ([1]; concentration of 0.01–0.1 μM): ~15%
overall inhibiting activity on calcium ion uptake, in words ([1]; whole concentration range 0.01–100 μM): potentiates the uptake at high concentrations
